Experimental data published in article PMC6130495, “Effect of piplartine and cinnamides on Leishmania amazonensis, Plasmodium falciparum and on peritoneal cells of Swiss mice” (Pharmaceutical Biology, 2017).
Several values for one entry are separate records, joined by “and”; a condition that tells them apart may be missing. Identical values can stand only once. Like-named read-outs stand apart in the source and are kept apart here.

Legend:
[1] = system: P. falciparum-infected erythrocytes; test: Growth inhibition of P. falciparum-infected erythrocytes, optical microscopy; format: cell-based; conditions: Plasmodium falciparum, Erythrocyte; for inhibition at 0.008 µg/mL: positive control, 8 ng/mL
Method: The Pf/Unb169 strain, kept under cryopreservation was culture together with O^+ erythrocytes in RPMI 1640 medium, supplemented with hypoxanthine (0.25 mg/dL), 10% of human serum, and gentamicin ([…]), at 37 °C in air with 5% CO2. For the assays, a suspension with 3% of hematocrit and 0.6% of infected erythrocytes was prepared.
To assess inhibitory or cytotoxic concentrations of the compounds (1–5), able to eliminate 50% of the cells in the cultures of L. amazonensis (IC50) and cytotoxic concentrations (CC50) in the cultures of peritoneal cell, MTT [3-(4,5-dimethylthiazol-2-yl)-2,5-diphenyltetrazolium bromide] (Sigma-Aldrich) method was used. This method evaluates the cell viability by the activity of mitochondrial succinate dehydrogenase enzyme that cleaves the tetrazolium salt to form formazan crystals in living cells. For the cultures of P. falciparum-infected erythrocytes, the IC50 were determined by optical microscopy. The concentrations for the compounds tested were calculated in μg/mL (ranging from 0 to 256 μg/mL), as well their equivalent in […], being: 1 (0 to 806.7 μM), 2 (0 to 833.0 μM), 3 (0 to 923.0 μM), 4 (0 to 832.8 μM) and 5 (0 to 923.1 μM).
A suspension of O^+ human erythrocytes (3% hematocrit and 0.6% of infected erythrocytes) was incubated at 37 °C with 5% of CO2 in air, for 48 or 72 h in RPMI 1640 medium supplemented with 10% human serum, in triplicate, in 96 wells plate, with different concentrations (0 to 256 μg/mL) of compounds (1–5). As positive control, infected erythrocytes were incubated with 8 ng/mL of artesunate (Artemix Ativus, São Paulo, Brazil) and, as negative control, they were incubated exclusively with the diluent (complete RPMI 1640 medium); 50% of the medium, for the cultures incubated for 72 h, was exchanged after 48 h, at the same concentrations as before. After that, 150 μL of the supernatant of the cultures were discarded, and a drop of suspension distended onto slides for microscopy, dried and fixed with methanol, was stained for 15 min with 10% of Giemsa solution (PBS, pH 6.9). The erythrocytes (1000 cells/slide) were analyzed by a single observer with optical microscopy and the results were expressed in percentage of infected cells.
The SI for each amide (1–5) was obtained by dividing the concentration able to eliminate 50% of peritoneal cells (CC50) by the concentration able to inhibit the growth of 50% of the protozoa (IC50). Compounds which presented SI greater than 10 were considered potentially microbicides and safe for the host cells (Bézivin et al. [2003]).

[2] = Cytotoxicity to peritoneal cells, MTT method; format: cell-based, Swiss mice; conditions: both sexes, Swiss, mouse, peritoneal cells (>99% macrophages), 6 h incubation, read-out: Estimated CC50 peritoneal cell 6 h
Method: To obtain peritoneal cells, six adult Swiss mice (male and female), weighing 30 ± 6 g, were used. During the experiments, the animals were kept in the Faculty of Medicine, University of Brasilia under ambient temperature, light/dark cycle of 12 h, fed with balanced diet and water ad libitum. The study was approved by the Ethics Committee on Animal Use (CEUA) of the Institute of Biological Sciences at University of Brasilia (Doc. no. 22199/2014).
To assess inhibitory or cytotoxic concentrations of the compounds (1–5), able to eliminate 50% of the cells in the cultures of L. amazonensis (IC50) and cytotoxic concentrations (CC50) in the cultures of peritoneal cell, MTT [3-(4,5-dimethylthiazol-2-yl)-2,5-diphenyltetrazolium bromide] (Sigma-Aldrich) method was used. This method evaluates the cell viability by the activity of mitochondrial succinate dehydrogenase enzyme that cleaves the tetrazolium salt to form formazan crystals in living cells. […]
Initially, cells obtained by washing the peritoneal cavity of the mice with 10 mL of PBS pH 7.2 at 4 °C, centrifuged at 400 g for 10 min and suspended with 1 mL of RPMI 1640 medium were quantified at Neubauer chamber with 0.05% of nigrosin solution. […] The formazan crystals were solubilized with 50 μL of DMSO/well and the absorbance obtained in spectrophotometer (Spectra Max® Plus 384) with 550 nm. […]

[3] = system: L. amazonensis promastigotes; test: Inhibition of L. amazonensis promastigotes, MTT method; format: cell-based, Leishmania amazonensis
Method: The MHOM/BR/pH8 strain was transferred to the NNN solid medium (Novy-MacNeal-Nicolle) for 48 h at 24 °C.
(Sigma-Aldrich) method was used. This method evaluates the cell viability by the activity of mitochondrial succinate dehydrogenase enzyme that cleaves the tetrazolium salt to form formazan crystals in living cells. For the cultures of P. falciparum-infected erythrocytes, the IC50 were determined by optical microscopy.
Then, 10 μL of MTT solution (5 mg/mL) was added to all wells and the cultures were re-incubated at the same condition for 4 h, but protected from light. […] The results were expressed in percentage.

## COc1cc(/C=C/C(=O)N2CCC=CC2=O)cc(OC)c1OC [Compound 1, 1-[(E)-3-(3,4,5-trimethoxyphenyl)prop-2-enoyl]-2,3-dihydropyridin-6-one]
[1]; 48 h, read-out: Estimated IC50 P. falciparum 48 h
  IC50: 19.5 µM and 6.2 µg/mL
[1]; 48 h, read-out: Inhibition of growth of parasites (P. falciparum)
  inhibition at 64 µg/mL: 100%
[1]; 72 h, read-out: Estimated IC50 P. falciparum 72 h
  IC50: 10.1 µM and 3.2 µg/mL
[1]; 72 h, read-out: Inhibition of growth of parasites (P. falciparum)
  inhibition at 8 µg/mL: 100%
[2]
  CC50 at 6 h: 731 µM and 232 µg/mL
[3]; CC50 peritoneal cells 6 h / IC50 L. amazonensis 6 h
  Selectivity Index (SI) = CC50/IC50, L. amazonensis: 1.3
[3]; L. amazonensis promastigotes, fold superior to piperidine analogue (IC50 2297.9 μM)
  Inhibitory activity relative to piperidine analogue (fold): 4.07 fold
[3]; Leishmania amazonensis, 6 h, read-out: Estimated IC50 L. amazonensis 6 h
  IC50: 564 µM and 179 µg/mL

## CNC[C@H](O)[C@@H](O)[C@H](O)[C@H](O)CO.[O]=[Sb](=[O])[OH] [N-metilglucamine, antimoniate of N-metilglucamine, reference compound]
[3]; positive control, 4 μg/mL, 6 h incubation
  Inhibition of the parasites (L. amazonensis): 55.4%

## C[C@H]1[C@H](OC(=O)CCC(=O)O)O[C@@H]2O[C@@]3(C)CC[C@H]4[C@H](C)CC[C@@H]1[C@@]24OO3 [artesunate, reference compound]
[1]; 48 h incubation, read-out: Inhibition of the parasites (P. falciparum) 48 h
  inhibition at 0.008 µg/mL: 79.8%
[1]; 72 h incubation, read-out: Inhibition of the parasites (P. falciparum) 72 h
  inhibition at 0.008 µg/mL: 90%

## COc1cc(C=CC(=O)N2CCCCC2)cc(OC)c1OC [piperidine analogue]
[3]; previous screening, data not shown, read-out: IC50 on growth of L. amazonensis promastigotes
  IC50: 2300 µM
